From patent publication US6642222B2, “Pyrano, piperidino, and thiopyrano compounds and methods of use” (Abbott Laboratories, priority 1998, dated 2003) come the findings set out here.

Each structure is given as a SMILES string.

The test system of assay [1] is Landrace Pig Bladder. Nature of the assay: Functional potassium channel opening activity in isolated bladder strips (field-stimulated twitch). To be noted: for Index: ED50 for P1075 divided by ED50 for the test agonist, averaged over tissues; for Emax / EC50: Sus scrofa; for Emax / Efficacy (% P1075): maximal efficacy relative to P1075, field stimulated bladder strips; for EC50 / pD2: negative logarithm of ED50; for EC50: read-out: pD2 (converted). Here is the method: Compounds were evaluated for functional potassium channel opening activity using tissue strips obtained from Landrace pig bladders. Landrace pig bladders were obtained from female Landrace pigs of 9-30 kg. Landrace pigs were euthanized with an intraperitoneal injection of pentobarbital solution, Somlethal®, J. A. Webster Inc. Sterling Mass. The entire bladder was removed and immediately placed into Krebs Ringer bicarbonate solution (composition, mM: NaCl, 120; […] Dextrose, 4.7; […] Propranolol (0.004 mM) was included in all of the assays to block β-adrenoceptors. The trigonal and dome portions were […], Strips 3-5 […] (mm) wide and 20 mm long were prepared from the remaining tissue cut in a circular fashion. The mucosal layer was removed. One end was fixed to a stationary glass rod and the other to a Grass FT03 transducer at a basal preload of 1.0 g. Two parallel platinum electrodes were included in the stationary glass trod to provide field stimulation of 0.05 Hz, 0.5 milli-seconds at 20 volts. […] Tissues were allowed to equilibrate for at least 60 minutes and primed with 80 mM KCl. A control concentration response curve (cumulative) was generated for each tissue using the potassium channel opener […] as the control agonist. […] After a 60 minute rinsing period, a concentration response curve (cumulative) was generated for the test agonist in the same fashion as that used for the control agonist […]. The maximal efficacy of each compounds (expressed as % relative to […]) is reported. The amount of agent necessary to cause 50% of the agent's maximal response (ED50) was calculated using “ALLFIT” (DeLean et al., Am. J. […] Agonist potencies were also expressed as an index relative to […]. The index was calculated by dividing the ED50 for […] by the ED50 for the test agonist in a given tissue. Each tissue was used for only one test agonist, and the indices obtained from each tissue were averaged to provide an average index of potency.

Assay [2] has as its system Guinea-Pig Bladder (GPB) Cells. Nature of the assay: Membrane Hyperpolarization (MHP) assay, DiBAC(4)3 / FLIPR. The settings on record: for EC50: membrane hyperpolarization, GPB cells; for Emax: read-out: Maximal Response (% P1075), maximal steady-state hyperpolarization, normalized to 10 μM P1075 (100%); for Maximal Response (% P1075): maximal steady-state hyperpolarization, normalized to 10 μM P1075 (100%).
Procedure: Compounds were evaluated for potassium channel opening activity using primary cultured guinea-pig urinary bladder (GPB) cells.
For the preparation of urinary bladder smooth muscle cells, urinary bladders were removed from male guinea-pigs (Hartley, Charles River, Wilmington, Mass.) weighing 300-400 grams (g) and placed in ice-cold Ca^2+-free Krebs solution (Composition, millimolar (mM): KCl, 2.7; KH2PO4, 1.5; NaCl, 75; Na2HPO4, 9.6; Na2HPO4.7H2O, 8; MgSO4, 2; glucose, 5; HEPES, 10; pH 7.4). Cells were isolated by enzymatic dissociation (Klockner, U. and Isenberg, G., Pflugers Arch. (1985), 405, 329-339). The bladder was cut into small sections and incubated in 5 milliliters (mL) of the Kreb's solution containing 1 milligram per milliliter (mg/mL) of collagenase (Sigma, St. Louis, Mo.) and 0.2 mg/mL of pronase (Calbiochem, La Jolla, Calif.) with continuous stirring in a cell incubator for 30 minutes. The mixture was then centrifuged at 1300× g for 5 minutes, and the pellet resuspended in Dulbecco's phosphate buffered saline (PBS) (GIBCO, Gaithersburg, Md.) and recentrifuged to remove residual enzyme. The cell pellet was resuspended in 5 mL growth media (composition: Dulbecco's modified Eagle's medium supplemented with 10% fetal bovine serum, 100 units/mL penicillin, 100 units/mL streptomycin and 0.25 mg/mL amphotericin B) and further dissociated by pipetting the suspension through a flame-polished Pasteur pipette and passing it through a polypropylene mesh membrane (Spectrum, Houston, Tex.). The cell density was adjusted to 100,000 cells/mL by resuspension in growth media. Cells were plated in clear-bottomed black 96-well plates (Packard) for membrane potential studies at a density of 20,000 cells/well and maintained in a cell incubator with 90% air: 10% CO2 until confluent. Cells were confirmed to be of smooth muscle type by cytoskeletal staining using a monoclonal mouse anti human-α-smooth muscle actin (Biomeda, Foster City, Calif.).
Functional activity at potassium channels was measured by evaluating changes in membrane potential using the bis-oxonol dye DiBAC(4)3 (Molecular Probes) in a 96-well cell-based kinetic assay system using a Fluorescent Imaging Plate Reader (FLIPR) (K. S. Schroeder et al., J. Biomed. Screen., v. 1 pp. 75-81 (1996)). DiBAC(4)3 is an anionic potentiometric probe which partitions between cells and extracellular solution in a membrane potential-dependent manner. With increasing membrane potential (for example, K^+ depolarization), the probe further partitions into the cell; this is measured as an increase in fluorescence due to dye interaction with intracellular lipids and proteins. Conversely, decreasing membrane potential (hyperpolarization by potassium channel openers) evokes a decrease in fluorescence.
Confluent guinea-pig urinary bladder cells cultured in black clear-bottomed 96-well plates were rinsed twice with 200 mL assay buffer (composition, mM: HEPES, 20; NaCl, 120; KCl, 2; CaCl2, 2; MgCl2, 1; glucose, 5; pH 7.4 at 25° C.) containing 5 μM DiBAC(4)3 and incubated with 180 mL of the buffer in a cell incubator for 30 minutes at 37° C. to ensure dye distribution across the membrane. After recording the baseline fluorescence for 5 minutes, the reference or test compounds, prepared at 10 times the concentration in the assay buffer, were added directly to the wells. Changes in fluorescence were monitored for an additional 25 minutes.
Routinely, five concentrations of P1075 or test compounds (log or half-log dilutions) were evaluated and the maximal steady-state hyperpolarization values (expressed as % relative to P1075) plotted as a function of concentration. The EC50 (concentration that elicites 50% of the maximal response for the test sample) values were calculated by non-linear regression analysis using a four parameter sigmoidal equation. The maximal micromolar EC50 response of each compound (expressed as % relative to P1075) is reported.

Turning to `Cl.O=C1CNCC2=C1C(c1ccc(F)c(Br)c1)C1=C(COCC1=O)N2` (stereo not drawn) [Example 24, 5-(3-bromo-4-fluorophenyl)-5,8,9,10-tetrahydro-1H-pyrano[3,4-b][1,7]naphthyridine-4,6(3H,7H)-dione Hydrochloride], in assay [1], the Index is recorded as 0.055, the Emax amounted to 100% and the EC50 is 1000 nM. For the same compound, in assay [2] (Cavia porcellus), the EC50 is 730 nM and the Emax stood at 74%.
Regarding `O=C1COCC2=C1C(c1ccc(Cl)c([N+](=O)[O-])c1)C1=C(COCC1=O)N2` [Example 28, 5-(4-chloro-3-nitrophenyl)-5,10-dihydro-1H,3H-dipyrano[3,4-b:4,3-e]pyridine-4,6(7H,9H)-dione], in assay [1], the Index is 0.42, the “Efficacy (% P1075)” value is listed as 94 % P1075 and the pD2 came out at 6.7. Further, in assay [2], the “Maximal Response (% P1075)” value is 98 % P1075 and the EC50 was found to be 64 nM.
For `N#Cc1cccc(C2C3=C(COCC3=O)NC3=C2C(=O)COC3)c1` [Example 29, 5-(3-cyanophenyl)-5,10-dihydro-1H,3H-dipyrano[3,4-b:4,3-e]pyridine-4,6(7H,9H)-dione], in assay [1], the Index was determined as 0.075, the “Efficacy (% P1075)” value was 89 % P1075 and the pD2 is recorded as 5.8. In assay [2], the “Maximal Response (% P1075)” value amounted to 87 % P1075 and the EC50 was determined as 1100 nM.
Regarding `O=C1COCC2=C1C(c1ccc(F)c(I)c1)C1=C(COCC1=O)N2` [Example 30, 5-(4-fluoro-3-iodophenyl)-5,10-dihydro-1H,3H-dipyrano[3,4-b:4,3-e]pyridine-4,6(7H,9H)-dione], in assay [1], the Index is recorded as 1.1, the “Efficacy (% P1075)” value was determined as 100 % P1075 and the pD2 is listed as 7.6. Also, in assay [2], the “Maximal Response (% P1075)” value amounted to 81 % P1075 and the EC50 is 5 nM.
On to `O=C1COCC2=C1C(c1cc(Br)ccc1O)C1=C(COCC1=O)N2` [Example 31, 5-(5-bromo-2-hydroxyphenyl)-5,10-dihydro-1H,3H-dipyrano[3,4-b:4,3-e]pyridine-4,6(7H,9H)-dione], for which, in assay [1], the Index was determined as 0.065, the “Efficacy (% P1075)” value was 85 % P1075 and the pD2 was determined as 5.1. Further, in assay [2], the “Maximal Response (% P1075)” value is 83 % P1075 and the EC50 came out at 1300 nM.
For `O=C1COCC2=C1C(c1ccc(F)c(C(F)(F)F)c1)C1=C(COCC1=O)N2` [Example 32, 5-[4-fluoro-3-(trifluoromethyl)phenyl]-5,10-dihydro-1H, 3H-dipyrano[3,4-b:4,3-e]pyridine-4,6(7H,9H)-dione], in that order: 0.41, 100 % P1075, 6.3, 102 % P1075 and 15 nM.
For `O=C1COCC2=C1C(c1ccc(Cl)c(Cl)c1)C1=C(COCC1=O)N2` [Example 33, 5-(3,4-dichlorophenyl)-5,10-dihydro-1H,3H-dipyrano[3,4-b:4,3-e]pyridine-4,6(7H,9H)-dione], in that order: 0.27, 93 % P1075, 5.9, 92 % P1075 and 3.4 nM.
For `O=C1COCC2=C1C(c1ccc3nonc3c1)C1=C(COCC1=O)N2` [Example 34, 5-(2,1,3-benzoxadiazol-5-yl)-5,10-dihydro-1H,3H-dipyrano[3,4-b:4,3-e]pyridine-4,6(7H,9H)-dione], in that order: 0.96, 93 % P1075, 7.0, 88 % P1075 and 91 nM.
Take `O=C1COCC2=C1C(c1ccc([N+](=O)[O-])s1)C1=C(COCC1=O)N2` [Example 35, 5-(5-nitro-2-thienyl)-5,10-dihydro-1H,3H-dipyrano[3,4-b:4,3-e]pyridine-4,6(7H,9H)-dione]: in assay [1], the Index was 1.8, the “Efficacy (% P1075)” value came out at 100 % P1075 and the pD2 came to 7.4. Further, in assay [2], the “Maximal Response (% P1075)” value was 98 % P1075 and the EC50 worked out at 25 nM.
For `O=C1COCC2=C1C(c1csc([N+](=O)[O-])c1)C1=C(COCC1=O)N2` [Example 36, 5-(5-nitro-3-thienyl)-5,10-dihydro-1H,3H-dipyrano[3,4-b:4,3-e]pyridine-4,6(7H,9H)-dione], in that order: 0.24, 100 % P1075, 6.5, 98 % P1075 and 82 nM.
Turning to `O=C1COCC2=C1C(c1ccc(F)c(I)c1)C1=C(CCS1(=O)=O)N2` (stereo not drawn) [Example 37, 9-(4-fluoro-3-iodophenyl)-2,3,5,9-tetrahydro-4H-pyrano[3,4-b]thieno[2,3-e]pyridin-8(7H)-one 1,1-dioxide], in assay [1], the Index amounted to 2.1, the Emax was 95% and the EC50 is 50.1 nM. In assay [2] (Cavia porcellus), the EC50 was determined as 0.64 nM and the Emax stood at 105%.
As to `Cl.O=C1CCC2=C1C(c1ccc(F)c(Cl)c1)C1=C(CNCC1=O)N2` (stereo not drawn) [Example 38, 5-(3-chloro-4-fluorophenyl)-2,3,5,7,8,9-hexahydro-1H-cyclopenta[b][1,7]naphthyridine-4,6-dione Hydrochloride], in assay [1], the Index was 0.024, the Emax is 80% and the EC50 was 5010 nM. In assay [2] (Cavia porcellus), the EC50 came out at 390 nM and the Emax came to 82%.
In assay [1] (Hydrochloride), `Cl.O=C1CNCC2=C1C(c1ccc(F)c(Br)c1)C1=C(COC1=O)N2` (stereo not drawn) [Example 39, 9-(3-bromo-4-fluorophenyl)-5,6,7,9-tetrahydrofuro[3,4-b][1,7]naphthyridine-1,8(3H,4H)-dione Hydrochloride] came in with an Index of 0.036 and a pD2 of 5.6. The Emax in assay [1] worked out at 96%. Besides, in assay [2] (Hydrochloride), the “Maximal Response (% P1075)” value was found to be 80 % P1075 and the EC50 came to 680 nM.
With `Cl.O=C1CNCC2=C1C(c1ccc(F)c(Br)c1)C1=C(COC1=O)N2` (stereo not drawn) [Example 40, 9-(3-bromo-4-fluorophenyl)-5,6,7,9-tetrahydrofuro [3,4-b][1,7]naphthyridine-1,8(3H,4H)-dione hydrochloride], in assay [1] (Hydrochloride), the Index is 0.13, the “Efficacy (% P1075)” value was found to be 91 % P1075 and the pD2 came to 6.0. For the same compound, in assay [2] (Hydrochloride), the “Maximal Response (% P1075)” value is recorded as 111 % P1075 and the EC50 was 320 nM.
For `O=C1CCCC2=C1C(c1ccc(F)c(Br)c1)C1=C(CSCC1=O)N2` (stereo not drawn) [Example 50, 5-(3-bromo-4-fluorophenyl)-5,8,9,10-tetrahydro-1H-thiopyrano[3,4-b]quinoline-4,6(3H,7H)-dione], in assay [1], the Index was found to be 0.28, the Emax was determined as 96% and the EC50 was 631 nM. In assay [2] (Cavia porcellus), the EC50 was determined as 84 nM and the Emax came to 108%.
`O=C1COCC2=C1C(c1ccc(F)c(Br)c1)C1=C(CCNC1=O)N2` (stereo not drawn) [Example 52, 10-(3-bromo-4-fluorophenyl)-3,4,6,10-tetrahydro-2H-pyrano[3,4-b][1,6]naphthyridine-1,9(5H,8H)-dione]: in assay [1], the Index is given as 0.069, the Emax was 99% and the EC50 is 5010 nM. Further, in assay [2] (Cavia porcellus), the EC50 worked out at 380 nM and the Emax is 105%.
In the case of `Cc1ccc(C2C3=C(COCC3=O)NC3=C2C(=O)COC3)cc1Br` [Example 53, 5-(3-bromo-4-methylphenyl)-5,10-dihydro-1H,3H-dipyrano[3,4-b:4,3-e]pyridine-4,6(7H,9H)-dione], in assay [1], the Index is given as 0.44, the “Efficacy (% P1075)” value worked out at 100 % P1075 and the pD2 is 7.0. In addition, in assay [2], the “Maximal Response (% P1075)” value was 98 % P1075 and the EC50 is 19 nM.
Regarding `Cc1ccc(C2C3=C(COCC3=O)NC3=C2C(=O)COC3)cc1I` [Example 54, 5-(3-iodo-4-methylphenyl)-5,10-dihydro-1H,3H-dipyrano[3,4-b:4,3-e]pyridine-4,6(7H,9H)-dione], in assay [1], the Index turned out to be 0.48, the “Efficacy (% P1075)” value is recorded as 100 % P1075 and the pD2 was determined as 6.9. For the same compound, in assay [2], the “Maximal Response (% P1075)” value was found to be 101 % P1075 and the EC50 amounted to 9.5 nM.
